Where two headings read alike, the source gives them in different places.
What was measured:
human neutrophils = assay: Human neutrophil migration assay; format: cell-based; details: Homo sapiens, Neutrophil, read-out: Human neutrophil migration IC50
Experimental: The activity of GPR84 agonists and antagonists can therefore be assayed in a human neutrophil migration assay. The human neutrophil migration assay makes use of freshly isolated human neutrophils from buffy coats that are subsequently used in a functional chemotaxis assay setup. […] After 1 h of incubation at 37° C. and 5% CO2, the number of migrated neutrophils in the lower compartment can be quantified by measuring the ATP content using ATPlite™ Luminescence Assay System. A human buffy coat suspension is diluted with an equal volume of ice cold DPBS. 20 mL of the diluted buffy coat suspension is gently mixed with 4 mL of ACD buffer (140 mM citric acid, 200 mM sodium citrate and 220 mM dextrose). Then, 12 mL of a 6% dextran/0.9% NaCl solution (15 g dextran T2000 and 2.25 g NaCl dissolved in 250 mL H2O) is added to the mixture and the samples are inverted gently up to 20 times. The total volume is transferred to a new recipient and incubated at room temperature to allow sedimentation of red blood cells. The yellowish upper fraction is then transferred to a clean centrifugation tube and centrifuged for 12 min at 1300 rpm and 4° C. After centrifugation, the supernatant is discarded and the remaining cell pellet is rapidly resuspended in 12 mL of ice-cold H2O to perform a red blood cell lysis by osmotic burst. After 20 seconds, 4 mL of ice-cold 0.6 M KCl is added to restore salt concentration. Samples are mixed carefully and centrifuged for 6 min at 1300 rpm and 4° C. The supernatant is discarded and the red blood cell lysis procedure is repeated one more time. […] A neutrophil cell suspension of 8.9×10^6 cells per mL is prepared in chemotaxis buffer and 180 μL per well is plated in a 96-well V-bottom plate. 20 μL of test compound solution in chemotaxis buffer is added to the 180 μL cell suspension. The mixture is incubated at room temperature for 30 min with intermediate gentle resuspension of the cells after 15 min. […] After 1 h at 37° C., 5% CO2 in a humidified incubator, the upper plate of the Transwell® system is gently removed. […] After incubation, 270 μL of cell lysate is then transferred onto a white 96-well plate for quantification by a luminescence plate reader. The relative luminescent signal measured is considered linearly related to the number of cells having migrated from the upper compartment into the receiver well.

GPR84 = target: T1, GPR84 (Homo sapiens, UniProt Q9NQS5); assay: GPR84 [35S]GTPγS binding assay; format: biochemical; details: 3,3′-diindolylmethane at EC80; membranes from stable cell line over expressing GPR84
T1 construct: expressed in transfected cells
In short: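 Antagonist-mode [35S]GTPγS binding on membranes from a GPR84-overexpressing stable line (GDP-preincubated), stimulated with 3,3′-diindolylmethane at EC80. Buffer 20 mM Tris pH 7.5, 5 mM MgCl2, 250 mM NaCl, saponin; 0.1 nM [35S]GTPγS, 90 min at room temperature, SPA bead read-out.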

[1] = embelin at EC80 as chemotactic agent, 1 h at 37° C.

T1 sequence (Q9NQS5 whole entry): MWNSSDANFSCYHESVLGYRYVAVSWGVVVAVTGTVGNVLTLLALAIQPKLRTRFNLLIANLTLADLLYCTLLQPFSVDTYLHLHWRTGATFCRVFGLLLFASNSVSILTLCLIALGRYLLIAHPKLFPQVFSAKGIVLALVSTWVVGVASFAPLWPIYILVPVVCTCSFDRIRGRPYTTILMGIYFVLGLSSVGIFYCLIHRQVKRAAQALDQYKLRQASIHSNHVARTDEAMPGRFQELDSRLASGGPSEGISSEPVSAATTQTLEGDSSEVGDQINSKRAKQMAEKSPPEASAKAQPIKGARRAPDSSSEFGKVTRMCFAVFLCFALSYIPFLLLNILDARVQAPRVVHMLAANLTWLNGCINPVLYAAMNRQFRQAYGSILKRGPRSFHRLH

SMILES | IC50 (human neutrophils; [1]) [nM] | IC50 (GPR84) [nM] | IC50 (human neutrophils; 1 h) [nM]
CCc1c2n(c(NCC3CCCO3)cc1=O)CCc1cc(OCC(F)F)ccc1-2 (stereo not shown) [Compound 26, 9-(2,2-difluoroethoxy)-1-ethyl-4-(tetrahydrofuran-2-ylmethylamino)-6,7-dihydrobenzo[a]quinolizin-2-one] | 500 to 1000 | 500 to 1000 | 
CCc1c2n(c(NCC3CCCO3)cc1=O)CCc1cc(OCC(F)(F)F)ccc1-2 (stereo not shown) [Compound 27, 1-ethyl-4-(tetrahydrofuran-2-ylmethylamino)-9-(2,2,2-trifluoroethoxy)-6,7-dihydrobenzo[a]quinolizin-2-one] | 100 to 500 | 500 to 1000 | 
Cc1c2n(c(NC[C@@H]3COCCO3)cc1=O)CCc1cc(OCC(F)F)ccc1-2 [Compound 35, 9-(2,2-difluoroethoxy)-4-[[(2R)-1,4-dioxan-2-yl]methylamino]-1-methyl-6,7-dihydrobenzo[b]quinolizin-2-one] | 0.01 to 100 | 100 to 500 | 
Cc1c2n(c(OC[C@@H]3COCCO3)cc1=O)CCc1cc(C3=CCOCC3)ccc1-2 [Compound 39, 9-(3,6-dihydro-2H-pyran-4-yl)-4-[[(2S)-1,4-dioxan-2-yl]methoxy]-1-methyl-6,7-dihydrobenzo[a]quinolizin-2-one] | 0.01 to 100 | 100 to 500 | 
Cc1c2n(c(NC[C@@H]3CCCO3)cc1=O)CCc1cc(OCC(F)(F)F)ccc1-2 [Compound 42, 1-methyl-4-[[(2S)-tetrahydrofuran-2-yl]methylamino]-9-(2,2,2-trifluoroethoxy)-6,7-dihydrobenzo[a]quinolizin-2-one] | 0.01 to 100 | 0.01 to 100 | 
Cc1noc(COc2ccc3c(c2)CCn2c(OCC4CCCO4)cc(=O)c(C)c2-3)n1 (stereo not shown) [Compound 43, 1-methyl-9-[(3-methyl-1,2,4-oxadiazol-5-yl)methoxy]-4-(tetrahydrofuran-2-ylmethoxy)-6,7-dihydrobenzo[a]quinolizin-2-one] | 0.01 to 100 | 0.01 to 100 | 
Cc1noc(COc2ccc3c(c2)CCn2c(OCC4CCCCO4)cc(=O)c(C)c2-3)n1 (stereo not shown) [Compound 44, 1-methyl-9-[(3-methyl-1,2,4-oxadiazol-5-yl)methoxy]-4-(tetrahydropyran-2-ylmethoxy)-6,7-dihydrobenzo[a]quinolizin-2-one] | 0.01 to 100 | 0.01 to 100 | 
Cc1c2n(c(OCC3CCCO3)cc1=O)CCc1cc(OCc3ccccn3)ccc1-2 (stereo not shown) [Compound 45, 1-methyl-9-(2-pyridylmethoxy)-4-(tetrahydrofuran-2-ylmethoxy)-6,7-dihydrobenzo[a]quinolizin-2-one] | 100 to 500 | 0.01 to 100 | 
Cc1c2n(c(OCC3CCCCO3)cc1=O)CCc1cc(OCc3ccccn3)ccc1-2 (stereo not shown) [Compound 46, 1-methyl-9-(2-pyridylmethoxy)-4-(tetrahydropyran-2-ylmethoxy)-6,7-dihydrobenzo[a]quinolizin-2-one] | 0.01 to 100 | 0.01 to 100 | 
Cc1c2n(c(OCC3CCCCO3)cc1=O)CCc1cc(OCC3CCCOC3)ccc1-2 (stereo not shown) [Compound 48, 1-methyl-4-(tetrahydropyran-2-ylmethoxy)-9-(tetrahydropyran-3-ylmethoxy)-6,7-dihydrobenzo[a]quinolizin-2-one] | 0.01 to 100 | 0.01 to 100 | 
Cc1c2n(c(OC[C@@H]3COCCO3)cc1=O)CCc1cc(OCC3CCCOC3)ccc1-2 (stereo partly drawn) [Compound 49, 4-[[(2S)-1,4-dioxan-2-yl]methoxy]-1-methyl-9-(tetrahydropyran-3-ylmethoxy)-6,7-dihydrobenzo[a]quinolizin-2-one] | 0.01 to 100 | 0.01 to 100 | 
Cc1ccc(COc2ccc3c(c2)CCn2c(OCC4CCCO4)cc(=O)c(C)c2-3)cn1 (stereo not shown) [Compound 50, 1-methyl-9-[(6-methyl-3-pyridyl)methoxy]-4-(tetrahydrofuran-2-ylmethoxy)-6,7-dihydrobenzo[a]quinolizin-2-one] | 0.01 to 100 | 0.01 to 100 | 

The remaining lines, values ahead:

IC50 (human neutrophils; [1]) [nM] | IC50 (GPR84) [nM] | IC50 (human neutrophils; 1 h) [nM] | SMILES
0.01 to 100 | 0.01 to 100 |  | COc1ccc2c(c1OC)CCn1c(OCC3CCCO3)cc(=O)c(C)c1-2 (stereo not shown) [Compound 28, 8,9-dimethoxy-1-methyl-4-(tetrahydrofuran-2-ylmethoxy)-6,7-dihydrobenzo[b]quinolizin-2-one]
0.01 to 100 | 0.01 to 100 |  | COc1ccc2c(c1OC)CCn1c(OCC3CCCCO3)cc(=O)c(C)c1-2 (stereo not shown) [Compound 29, 8,9-dimethoxy-1-methyl-4-(tetrahydropyran-2-ylmethoxy)-6,7-dihydrobenzo[b]quinolizin-2-one]
0.01 to 100 | 0.01 to 100 |  | Cc1c2n(c(OC[C@@H]3COCCO3)cc1=O)CCc1cc(OCC3CCOCC3)ccc1-2 [Compound 30, 4-[[(2S)-1,4-dioxan-2-yl]methoxy]-1-methyl-9-(tetrahydropyran-4-ylmethoxy)-6,7-dihydrobenzo[b]quinolizin-2-one]
0.01 to 100 | 0.01 to 100 |  | Cc1c2n(c(OC[C@@H]3COCCO3)cc1=O)CCc1cc(OCc3ccccn3)ccc1-2 [Compound 31, 4-[[(2S)-1,4-dioxan-2-yl]methoxy]-1-methyl-9-(2-pyridylmethoxy)-6,7-dihydrobenzo[b]quinolizin-2-one]
0.01 to 100 | 0.01 to 100 |  | Cc1c2n(c(OC[C@@H]3COCCO3)cc1=O)CCc1cc(OCc3cccc(OC(F)(F)F)c3)ccc1-2 [Compound 32, 4-[[(2S)-1,4-dioxan-2-yl]methoxy]-1-methyl-9-[[3-(trifluoromethoxy)phenyl]methoxy]-6,7-dihydrobenzo[a]quinolizin-2-one]
0.01 to 100 | 0.01 to 100 |  | Cc1c2n(c(OC[C@@H]3COCCO3)cc1=O)CCc1cc(OCc3ccccc3)ccc1-2 [Compound 33, 9-benzyloxy-4-[[(2S)-1,4-dioxan-2-yl]methoxy]-1-methyl-6,7-dihydrobenzo[a]quinolizin-2-one]
100 to 500 | 0.01 to 100 |  | Cc1c2n(c(NC[C@@H]3COCCO3)cc1=O)CCc1cc(OCC(F)(F)F)ccc1-2 [Compound 36, 4-[[(2R)-1,4-dioxan-2-yl]methylamino]-1-mehtyl-9-(2,2,2-trifluoroethoxy)-6,7-dihydrobenzo[a]quinolizin-2-one]
0.01 to 100 | 0.01 to 100 |  | Cc1c2n(c(OC[C@@H]3COCCO3)cc1=O)CCc1cc(OS(=O)(=O)C(F)(F)F)ccc1-2 [Compound 37, [4-[[(2S)-1,4-dioxan-2-yl]methoxy]-1-methyl-2-oxo-6,7-dihydrobenzo[a]quinolizin-9-yl] trifluoromethanesulfonate]
100 to 500 | 0.01 to 100 |  | Cc1c2n(c(OC[C@@H]3COCCO3)cc1=O)CCc1cc(OCc3cnn(C)c3)ccc1-2 [Compound 38, 4-[[(2S)-1,4-dioxan-2-yl]methoxy]-1-methyl-9-[(1-methylpyrazol-4-yl)methoxy]-6,7-dihydrobenzo[a]quinolizin-2-one]
 | 0.01 to 100 | 0.01 to 100 | CCn1cc(-c2ccc3c(c2)CCn2c(OC[C@@H]4COCCO4)cc(=O)c(C)c2-3)cn1 [Compound 40, 4-[[(2S)-1,4-dioxan-2-yl]methoxy]-9-(1-ethylpyrazol-4-yl)-1-methyl-6,7-dihydrobenzo[a]quinolizin-2-one]
0.01 to 100 | 0.01 to 100 |  | Cc1c2n(c(OC[C@@H]3COCCO3)cc1=O)CCc1cc(C3CCOCC3)ccc1-2 [Compound 41, 4-[[(2S)-1,4-dioxan-2-yl]methoxy]-1-methyl-9-tetrahydropyran-4-yl-6,7-dihydrobenzo[a]quinolizin-2-one]

From patent US10568879B2 (GALAPAGOS NV, priority 2015, dated 2020)
